1 molecule from patent US6107318A, “Naphthothiazolone derivatives active on the D3 dopaminergic receptor” (Zambon Group S.p.A., priority 1997, dated 2000) can be followed below.

Where a name gives a salt, the structure may show the parent alone.

The target in assay [1] is T1, D4 (Homo sapiens, UniProt P21917).
T1 construct: expressed in transfected cells; host or cells: CHO or murine mesencephalic neuronal NM9D (sic)
T1 sequence (P21917 1-419): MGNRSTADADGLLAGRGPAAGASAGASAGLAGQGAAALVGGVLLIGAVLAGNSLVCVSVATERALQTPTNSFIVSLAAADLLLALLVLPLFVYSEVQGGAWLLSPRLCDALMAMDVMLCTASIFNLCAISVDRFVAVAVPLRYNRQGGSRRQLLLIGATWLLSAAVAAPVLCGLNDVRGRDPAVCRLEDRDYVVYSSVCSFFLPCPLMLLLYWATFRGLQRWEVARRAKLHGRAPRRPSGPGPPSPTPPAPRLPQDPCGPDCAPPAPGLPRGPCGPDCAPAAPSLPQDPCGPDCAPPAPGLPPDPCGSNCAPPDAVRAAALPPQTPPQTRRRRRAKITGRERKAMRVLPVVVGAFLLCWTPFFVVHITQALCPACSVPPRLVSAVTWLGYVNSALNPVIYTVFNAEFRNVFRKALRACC
The assay can be described thus: Binding to dopaminergic receptors in cell cultures, displacement of [3H]-spiperone, D4. The settings on record: CHO or NM9D cell membranes; [3H]-spiperone 0.2 nM; non specific (+)-butaclamol 1 μM; Cheng and Prusoff; read-out: Receptor binding (Ki nM) D4. The protocol:
(§1) Test for evaluating the bindings to dopaminergic receptors in cell cultures
(§2) Chinese hamster ovary cells (CHO) transfected with dopaminergic receptor subtypes and murine mesencephalic neuronal (NM9D) expressing the different subtypes of such receptors were used. The cell lines were grown on Petri dishes, in a mixture of DMEM and Ham's F12 medium 1:1 supplemented with 10% foetal bovine serum (FBS), penicillin, streptomycin, geneticin (500 μg/ml) and glutamin in a humidified 5% CO2 atmosphere at 37° C. When cells reached confluence they were washed with 10 ml of PBS (KCl 2.68 mM, KH2 PO4 1.4 mM, NaCl […] and Na2 HPO4 6.4 mM) then 5 ml of lysis buffer (Tris-HCl 10 mM and EDTA 5 mM) were added to each Petri. Cells were scrapped and the solution centrifuged for 20 minutes at 48,000 gravity, 4° C. The pellet was suspended in a minimal amount of lysis buffer and homogenised for 15 seconds. […] Saturation curves were analysed using Ligand® program to have Kd (dissociation constant) and Bmax (number of receptors/mg of protein) (Munson and Rodbar, 1980Anal. Biochem., 107, 220-239). […]
(§3) The compounds of the invention were tested at increasing concentrations for evaluating their binding to the various receptors, expressed as Ki (affinity constant) obtained through the Cheng and Prusoff equation

For assay [2], the target named is T2, D1 (Homo sapiens, UniProt P21728).
T2 construct: expressed in transfected cells; host or cells: CHO or murine mesencephalic neuronal NM9D (sic)
T2 sequence (P21728 whole entry): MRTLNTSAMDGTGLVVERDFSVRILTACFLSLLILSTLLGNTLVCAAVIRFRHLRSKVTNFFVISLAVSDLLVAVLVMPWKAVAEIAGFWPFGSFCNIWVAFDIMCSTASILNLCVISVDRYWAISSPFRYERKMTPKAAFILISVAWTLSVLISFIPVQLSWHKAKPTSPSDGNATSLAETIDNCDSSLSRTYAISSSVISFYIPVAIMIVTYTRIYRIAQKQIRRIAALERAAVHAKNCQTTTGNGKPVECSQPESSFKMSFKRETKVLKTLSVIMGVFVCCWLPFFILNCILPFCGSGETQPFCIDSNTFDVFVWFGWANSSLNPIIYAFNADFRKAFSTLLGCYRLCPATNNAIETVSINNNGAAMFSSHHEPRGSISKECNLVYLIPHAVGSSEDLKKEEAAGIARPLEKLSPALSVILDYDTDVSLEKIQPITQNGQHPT
Briefly: Binding to dopaminergic receptors in cell cultures, displacement of [3H]-SCH23390, D1. The settings on record: CHO or NM9D cell membranes; [3H]-SCH23390 0.2 nM; non specific (-)cis-flupenthixol 1 μM; Cheng and Prusoff; read-out: Receptor binding (Ki nM) D1. Here is the method:
as §1, §2, §3
For orientation: In a radioligand displacement assay an active substance lowers the binding of a labelled ligand.

For assay [3], the target named is T3, D5 (Homo sapiens, UniProt P21918).
T3 construct: expressed in transfected cells; host or cells: CHO or murine mesencephalic neuronal NM9D (sic)
T3 sequence (P21918 whole entry): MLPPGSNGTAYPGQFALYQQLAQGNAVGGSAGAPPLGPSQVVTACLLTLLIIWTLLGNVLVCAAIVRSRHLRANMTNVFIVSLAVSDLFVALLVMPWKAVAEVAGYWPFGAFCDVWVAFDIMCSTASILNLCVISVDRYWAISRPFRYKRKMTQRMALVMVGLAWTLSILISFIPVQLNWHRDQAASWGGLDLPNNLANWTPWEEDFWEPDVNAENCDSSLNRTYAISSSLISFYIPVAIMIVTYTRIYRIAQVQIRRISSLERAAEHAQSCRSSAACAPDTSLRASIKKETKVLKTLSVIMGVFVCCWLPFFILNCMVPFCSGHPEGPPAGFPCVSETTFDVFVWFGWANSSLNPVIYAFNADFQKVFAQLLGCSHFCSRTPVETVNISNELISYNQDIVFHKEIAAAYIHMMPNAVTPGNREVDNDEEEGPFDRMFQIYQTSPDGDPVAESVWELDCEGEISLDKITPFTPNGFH
The assay can be described thus: Binding to dopaminergic receptors in cell cultures, displacement of [3H]-SCH23390, D5. The settings on record: CHO or NM9D cell membranes; [3H]-SCH23390 0.2 nM; non specific (-)cis-flupenthixol 1 μM; Cheng and Prusoff; read-out: Receptor binding (Ki nM) D5. Here is the method:
as §1, §2, §3

The target of assay [4] is T4, D2s (Homo sapiens, UniProt P14416).
T4 construct: expressed in transfected cells; host or cells: CHO or murine mesencephalic neuronal NM9D (sic)
T4 sequence (P14416 1-414 isoform P14416-2): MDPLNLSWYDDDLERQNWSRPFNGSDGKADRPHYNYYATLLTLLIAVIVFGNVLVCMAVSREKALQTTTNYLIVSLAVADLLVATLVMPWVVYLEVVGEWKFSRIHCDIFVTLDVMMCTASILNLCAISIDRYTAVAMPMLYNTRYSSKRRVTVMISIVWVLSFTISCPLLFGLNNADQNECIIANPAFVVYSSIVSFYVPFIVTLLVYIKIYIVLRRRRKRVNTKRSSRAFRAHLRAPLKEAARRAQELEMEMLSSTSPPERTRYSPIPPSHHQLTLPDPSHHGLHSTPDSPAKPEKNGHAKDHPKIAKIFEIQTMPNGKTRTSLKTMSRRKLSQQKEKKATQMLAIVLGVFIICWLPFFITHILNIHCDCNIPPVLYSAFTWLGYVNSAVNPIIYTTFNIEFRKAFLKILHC
The assay can be described thus: Binding to dopaminergic receptors in cell cultures, displacement of [3H]-spiperone, D2s. The settings on record: CHO or NM9D cell membranes; [3H]-spiperone 0.1 nM; non specific (+)-butaclamol 1 μM; Cheng and Prusoff; read-out: Receptor binding (Ki nM) D2s. Here is the method:
as §1, §2, §3

The target in assay [5] is T5, D3 (Homo sapiens, UniProt P35462).
T5 construct: expressed in transfected cells; host or cells: CHO or murine mesencephalic neuronal NM9D (sic)
T5 sequence (P35462 whole entry): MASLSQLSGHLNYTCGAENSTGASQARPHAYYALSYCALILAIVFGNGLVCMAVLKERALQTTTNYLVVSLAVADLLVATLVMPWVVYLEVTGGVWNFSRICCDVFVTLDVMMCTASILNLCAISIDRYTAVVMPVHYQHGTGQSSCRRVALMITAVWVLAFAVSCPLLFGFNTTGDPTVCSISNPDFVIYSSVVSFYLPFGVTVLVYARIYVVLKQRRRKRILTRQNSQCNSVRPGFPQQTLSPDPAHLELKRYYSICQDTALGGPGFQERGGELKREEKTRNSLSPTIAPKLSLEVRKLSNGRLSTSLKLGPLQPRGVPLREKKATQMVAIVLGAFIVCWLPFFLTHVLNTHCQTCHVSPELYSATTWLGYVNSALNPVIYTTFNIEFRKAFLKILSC
Briefly: Binding to dopaminergic receptors in cell cultures, displacement of [3H]-spiperone, D3. The settings on record: CHO or NM9D cell membranes; [3H]-spiperone 0.3 nM; non specific (+)-butaclamol 1 μM; Cheng and Prusoff; read-out: Receptor binding (Ki nM) D3. The protocol: as §1, §2, §3

On to `CCCN(CCCCCCNCCc1ccc(S(C)(=O)=O)cc1)[C@H]1CCc2c(ccc3sc(=O)[nH]c23)C1` [Compound 2, (S)-6-N-propyl-N-6-[2-(4-methylsulfonylphenyl)ethylamino]hexylamino-4,5,6,7-tetrahydronaphtho(1,2-d)thiazol-2(3H)-one dihydrochloride], for which the Ki is greater than 10000 nM in assay [1]; greater than 10000 nM in assay [2]; 9270 nM in assay [3]; 9440 nM in assay [4]; 92 nM in assay [5].

In general, Ki refers to the equilibrium dissociation constant of an inhibitor or competing ligand from its target.
